The source of these data is patent publication US20060003364A1, “GLUT1 transporters expressed in cancer cells” (XenoPort, Inc., priority 2004, published 2006).

In assay [1] the target is T1, GLUT1 (Homo sapiens, UniProt P11166).
T1 sequence (P11166 1-492): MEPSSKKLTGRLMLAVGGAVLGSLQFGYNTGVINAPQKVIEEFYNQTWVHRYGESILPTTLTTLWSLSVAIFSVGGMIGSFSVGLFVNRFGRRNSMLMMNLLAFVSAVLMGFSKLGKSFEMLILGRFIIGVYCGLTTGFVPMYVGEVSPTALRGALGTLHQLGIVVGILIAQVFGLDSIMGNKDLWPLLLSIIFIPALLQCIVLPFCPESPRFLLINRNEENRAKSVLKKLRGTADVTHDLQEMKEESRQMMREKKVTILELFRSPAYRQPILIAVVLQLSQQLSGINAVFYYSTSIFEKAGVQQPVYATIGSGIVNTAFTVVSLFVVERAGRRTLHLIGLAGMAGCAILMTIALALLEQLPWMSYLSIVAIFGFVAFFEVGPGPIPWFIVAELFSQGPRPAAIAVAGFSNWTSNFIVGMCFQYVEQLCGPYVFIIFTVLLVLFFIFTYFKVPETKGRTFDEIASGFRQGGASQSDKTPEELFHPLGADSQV
The note with it: cited from earlier work.

In assay [2] the target is T1, GLUT1. The experiment in a line: Radiolabel glucose uptake in Xenopus oocytes expressing GLUT1. The class given is cell-based. On the set-up: expressed in transfected cells; host or cells: Xenopus oocytes (cRNA injected). Conditions: oocytes expressing GLUT1 vs noninjected controls; 3 minutes, ND96 buffer. The method, then: To assess transport function of a specific transporter protein, it can be desirable to clone the cDNA and express the protein in cells that have low endogenous transport activity. Human GLUT1 was cloned by PCR, fully sequenced, and subcloned into plasmids that can be used for expression in mammalian cells or Xenopus oocytes. […] For expression in Xenopus oocytes, in vitro GLUT1 cRNA was prepared and injected into defoliculated oocytes.
Oocytes expressing GLUT1 or control oocytes not expressing GLUT1 were incubated in an oocyte ringers (ND96) buffer ([…], 10 mM HemiNa HEPES, 2 mM KCl, 1 mM MgCl, 1.8 mM CaCl2) containing 0.5% bovine serum albumin and 3H-glucose (10^6 CPM/ml) for 3 minutes. Oocytes were washed and uptake of radiolabel quantified by scintillation counting.

Regarding `O=C1O[C@H]([C@@H](O)CO)C(=O)C1=O` [Dehydroascorbic Acid], the “Reported Affinity for GLUT1” value in assay [1] is 0.8 mM.
Take `O=C[C@H](O)[C@@H](O)[C@@H](O)[C@H](O)CO` [Galactose]: the “Reported Affinity for GLUT1” value in assay [1] was 4 mM.
In the case of `N[C@H]1C(O)O[C@H](CO)[C@@H](O)[C@@H]1O` (stereo partly drawn) [Glucosamine], the “Reported Affinity for GLUT1” value in assay [1] is 9 mM.
As for `O=C[C@H](O)[C@@H](O)[C@H](O)[C@H](O)CO` [^3H-glucose], the 3H-glucose uptake entry in assay [2] is on record as “higher levels of ^3H-glucose uptake than noninjected controls”.
Regarding “(S)-methoxy-a-methyl-2-napthalene acetic acid amido galacto pyranose”, the “Reported Affinity for GLUT1” value in assay [1] was 1 mM.
Regarding Fluorodeoxyglucose, the “Reported Affinity for GLUT1” value in assay [1] is given as 4 mM.
